In article PMC7563551, “The Cytokine IL-1β and Piperine Complex Surveyed by Experimental and Computational Molecular Biophysics” (Biomolecules, 2020):

Molecular target: T1, IL-1β (interleukin-1 beta) (Homo sapiens, UniProt P01584)
T1 construct: gene IL1B; 153 residues, single Trp120 and extinction coefficient 11,460 fit the human mature chain; docking model 1ITB chain A
Assay: Trp120 fluorescence quenching titration, interaction density function with Scatchard plot
Format: binding
Details: read-out: Kb

T1 sequence (P01584 117-269): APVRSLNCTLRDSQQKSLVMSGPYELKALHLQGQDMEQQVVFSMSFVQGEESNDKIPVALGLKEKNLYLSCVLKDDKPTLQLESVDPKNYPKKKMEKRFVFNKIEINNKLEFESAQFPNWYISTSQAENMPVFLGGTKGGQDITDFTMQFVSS

O=C(/C=C/C=C/c1ccc2c(c1)OCO2)N1CCCCC1 [piperine]
Kd: 6.99 µM
